Laboratory results from patent US5827849A, “Cyclic dericatives, pharmaceutical compositions containing these compounds and processes for preparing them” (Karl Thomae GmbH, priority 1993, dated 1998).
Where a name gives a salt, the structure may show the parent alone. Read-outs that look alike come from different tables or passages of the source.

Tests used:
Human thrombocytes = assay: Inhibition of the binding of 3H-BIBU 52 to human thrombocytes (platelets); details: 20 minutes
Procedure: 1. Inhibition of the binding of ^3 H-BIBU 52 to Human thrombocytes […] Case 5/1093-FL) and various concentrations of the test substance. The free and bound ligand are separated by centrifuging and quantitatively measured by scintillation counting. From the measurements obtained the inhibition of ^3 H-BIBU 52 binding caused by the test substance is determined. In order to do this, donor blood is taken from an anticubital vein and anti-coagulated with trisodium citrate (final concentration 13 mM). The blood is centrifuged for 10 minutes at 170×g and the supernatant platelet-rich plasma (PRP) is removed. The remaining blood is centrifuged vigorously once more in order to recover plasma. The PRP is diluted with autologous plasma 1:10. 750 μl are incubated for 20 minutes at ambient temperature with 50 μl of physiological saline solution, 100 μl of test substance solution, 50 μl of ^14 C-sucrose (3700 Bq) and 50 μl of ^3 H-BIBU 52 (final concentration: 5 nM). In order to measure the non specific binding, 5 μl of BIBU 52 (final concentration 30 μM) are used instead of the test substance. […] The pellet is dissolved in 500 μl of 0.2N NaOH, 450 μl are mixed with 2 ml of scintallator and 25 μl of 5N HCl, and measured. The residual plasma remaining in the pellet is determined from the ^14 C-content, and the bound ligand is determined from the ^3 H-measurement. After substracting the non specific binding, the pellet activity is plotted against the concentration of the test substance and the concentration for 50% inhibition of binding is determined. A. Inhibition of the binding of ^3 H-BIBU 52 to human platelets […] The free and bound ligand is separated by centrifugation and determined quantitatively by scintillation counting. The inhibition of ^3 H-BIBU 52 binding by the test substance is determined from the measurements. For this purpose, donor blood is taken from an antecubital vein and anticoagulated with trisodium citrate (final concentration 13 mM). The blood is centrifuged at 170×g for 10 minutes, and the supernatant platelet-rich plasma (PRP) is removed. The remaining blood is thoroughly centrifuged once again to obtain plasma. The PRP is diluted 1:10 with autologous plasma. […] are incubated with […] of physiological saline, […] of test substance solution, […] of ^14 C-sucrose (3700 Bq) and 50 ml of ^3 H-BIBU 52 (final concentration: 5 nM) at room temperature for 20 minutes. To measure the nonspecific binding, 5 ml of BIBU 52 (final concentration: […]) are used in place of the test substance. […] The pellet is dissolved in 500 ml of 0.2N NaOH, and 450 ml are mixed with 2 ml of scintillator and 25 ml of 5N HCl and measured. The remaining plasma still present in the pellet is determined from the ^14 C content, and the bound ligand is determined from the ^3 H measurement. After subtraction of the nonspecific binding, the activity in the pellet is plotted against the concentration of test substance, and the concentration for 50% inhibition of binding is found.

[1] = system: Thrombocyte aggregation (collagen-induced); assay: Collagen-induced platelet aggregation in platelet-rich plasma (Born and Cross method); format: cell-based; details: Homo sapiens, 10 min, 10 minutes incubation at 37° C., read-out: Inhibition of platelet aggregation EC50
Procedure: 2. Antithrombotic activity Thrombocyte aggregation is measured using the Born and Cross method (J. Physiol. 170: 397 (1964)) in platelet-rich plasma taken from healthy volunteers. To inhibit coagulation the blood is mixed with 3.14% sodium citrate in a ratio by volume of 1:10. Collagen-induced aggregation The pattern of the decrease in optical density of the platelet suspension is photometrically measured and recorded after the addition of the aggregation-triggering substance. The rate of aggregation is determined from the angle of inclination of the density curve. The point on the curve where there is maximum light transmittance is used to calculate the optical density. The amount of collagen used is as small as possible but sufficient to produce an irreversible reaction curve. Standard commercial collagen produced by Hormonchemie of Munich is used. Before the addition of the collagen the plasma is incubated for 10 minutes with the test substance at 37° C. From the measurements obtained, an EC50 is determined graphically, indicating a 50% change in the optical density in terms of the inhibition of aggregation. B. Antithrombotic effect Platelet aggregation is measured by the method of Born and Cross (J. Physiol. 170, 397 (1964)) in platelet-rich plasma from healthy test subjects. For anticoagulation, sodium citrate 3.14% is added to the blood in the ratio 1:10 by volume. Collagen-induced aggregation The course of the decrease in optical density of the platelet suspension is measured and recorded photometrically after addition of the aggregation-inducing substance. The rate of aggregation is established from the angle of inclination of the density plot. The point on the plot at which the transmission of light is a maximum is used to calculate the optical density. The amount of collagen is chosen to be as small as possible but sufficient for the reaction plot to have an irreversible course. The collagen commercially obtainable from Hormonchemie, Munich, is used. Before the addition of collagen the plasma is in each case incubated with the substance at 37° C. for 10 minutes. An EC50 which relates to a 50% change in the optical density in the sense of inhibition of aggregation is determined graphically from the measured results.

[2] = system: collagen-induced thrombocyte aggregation; assay: Inhibition of collagen-induced thrombocyte aggregation ex vivo after oral administration; format: in vivo; details: Rhesus monkeys; oral administration of 1 mg/kg
[3] = human thrombocytes in plasma, 3H-BIBU 52 5 nM, ambient temperature, read-out: 3H-BIBU 52-binding test IC50
[4] = platelet-rich plasma of healthy volunteers, compounds of general formula I
[5] = human platelets in plasma, 3H-BIBU 52 5 nM replaces 125I-fibrinogen, room temperature, read-out: Fibrinogen binding assay IC50
[6] = platelet-rich plasma from healthy test subjects, compounds of general formula XXI

Compound | IC50 (Human thrombocytes; [3]) | IC50 (Human thrombocytes; [5]) | EC50 [1, 4] | EC50 [1, 6] | duration of inhibition of collagen-induced thrombocyte aggregation ex vivo [2]
COC(=O)CCc1ccc(N2CCN(c3ccc4c(c3)CCNC4)C2=O)cc1 [Example 6, 1-[4-[2-(Methoxycarbonyl)ethyl]phenyl]-3-(1,2,3,4-tetrahydro-isoquinolin-6-yl)-imidazolidin-2-one-acetate] | 110 nM |  | 40 nM |  | 
O=C(O)CCc1ccc(N2CCN(c3ccc4c(c3)CCNC4)C2=O)cc1 [2(2), 1-[4-(2-carboxyethyl)phenyl]-3-(1,2,3,4-tetrahydroisoquinolin-6-yl)-imidazolidin-2-one] | 24 nM |  | 40 nM |  | 
CCN1CCc2ncc(N3CCN(c4ccc(OCC(=O)O)cc4)C3=O)nc2CC1 [36 (1), 1-[4-[(Carboxymethyl)oxy]phenyl]-3-(7-ethyl-6,7,8,9-tetrahydro-5H-pyrazino[2,3-d]azepin-2-yl)imidazolidin-2-one×1.75 HCl×H2 O] |  | 77 nM |  | 290 nM | 
Nc1nccc2cc(N3CCN(c4ccc(CCC(=O)O)cc4)C3=O)ccc12 [Example 1, 1-(1-Aminoisoquinolin-6-yl)-3-[4-(2-carboxyethyl)phenyl]-imidazolidin-2-one×1 water×1.2 acetic acid] | 190 nM |  | > 10000 nM |  | 
CC(C)COC(=O)CCc1ccc(N2CCN(c3ccc4c(c3)CCNC4)C2=O)cc1 [Example 7, 1-[4-[2-(Isobutyloxycarbonyl)ethyl]phenyl]-3-(1,2,3,4-tetrahydroisoquinolin-6-yl)-imidazolidin-2-one-hydrochloride×1 water] |  |  |  |  | more than 5 hours
O=C(O)CC[C@H]1CC[C@H](N2CCN(c3ccc4c(n3)CCNCC4)C2=O)CC1 [32 (3), 1-[trans-4-(2-Carboxyethyl)cyclohexyl]-3-(6,7,8,9-tetrahydro-5H-pyrido[2,3-d]azepin-2-yl)imidazolidin-2-one] |  | 15 nM |  | 81 nM | 
CN1CCc2ccc(N3CC(=O)N([C@H]4CC[C@H](CCC(=O)O)CC4)C3=O)cc2CC1 [19(3), 3-[trans-4-(2-carboxyethyl)cyclohexyl]-1-(3-methyl-2,3,4,5-tetrahydro-1H-3-benzazepin-7-yl)-hydantoin-hydrochloride] | 81 nM |  | 430 nM |  | 
CN1CCc2ccc(N3CCN([C@H]4CC[C@H](OCC(=O)O)CC4)C3=O)cc2CC1 [19(1), 1-[trans-4-[(carboxymethyl)oxy]cyclohexyl]-3-(3-methyl-2,3,4,5-tetrahydro-1H-3-benzazepin-7-yl)-imidazolidin-2-one-hydrochloride×NaCl×0.5H2 O] | 120 nM |  | 350 nM |  | 
O=C(O)CCc1ccc(N2CCN([C@@H]3CC[C@H]4CNCC[C@@H]4C3)C2=O)cc1 (relative stereo) [9(1)] | 760 nM |  | 990 nM |  | 
O=C(O)CC[C@H]1CC[C@H](n2ccn(-c3cnc4c(n3)CCNCC4)c2=O)CC1 [32 (6), 1-[trans-4-(2-Carboxyethyl)cyclohexyl]-3-(6,7,8,9-tetrahydro-5H-pyrazino[2,3-d]azepin-2-yl)-3H-imidazol-2-one] |  | 31 nM |  | 230 nM | 
O=C(O)CCc1ccc(-n2ccn(-c3ccc4cnccc4c3)c2=O)cc1 [2(1), 1-[4-(2-carboxyethyl)phenyl]-3-(isoquinolin-6-yl)-3H-imidazol-2-one] | 5400 nM |  | > 10000 nM |  | 
O=C(O)CCc1ccc(N2CCN(c3ccc4c(c3)CCNCC4)C2=O)cc1 [Example 9, 1-[4-(2-Carboxyethyl)phenyl]-3-(2,3,4,5-tetrahydro-1H-3-benzazepin-7-yl)-imidazolidin-2-one] | 85 nM |  | 190 nM |  | 

Second part, led by results:

IC50 (Human thrombocytes; [3]) | IC50 (Human thrombocytes; [5]) | Compound | EC50 [1, 4] | EC50 [1, 6] | duration of inhibition of collagen-induced thrombocyte aggregation ex vivo [2]
 | 13 nM | CN1CCc2ncc(N3CC(=O)N([C@H]4CC[C@H](CCC(=O)O)CC4)C3=O)nc2CC1 [36 (12), 3-[trans-4-(2-Carboxyethyl)cyclohexyl]-1-(7-methyl-6,7,8,9-tetrahydro-5H-pyrazino[2,3-d]azepin-2-yl)-imidazolidine-2,4-dione hydrochloride] |  | 450 nM | 
 | 250 nM | CCN1CCc2cc(N3CCN([C@H]4CC[C@H](CCC(=O)O)CC4)C3=O)cnc2CC1 [32 (1), 1-[trans-4-(2-Carboxyethyl)cyclohexyl]-3-(7-ethyl-6,7,8,9-tetrahydro-5H-pyrido[2,3-d]azepin-3-yl)imidazolidin-2-one×1 H2 O] |  | 310 nM | 
 | 18 nM | CN1CCc2ncc(N3CCN(C4CCN(CCC(=O)O)CC4)C3=O)nc2CC1 [36 (3), 1-[1-(2-Carboxyethyl)piperidin-4-yl]-3-(7-methyl-6,7,8,9-tetrahydro-5H-pyrazino[2,3-d]azepin-2-yl)imidazolidin-2-one trihydrochloride] |  | 71 nM | 
 | 19 nM | CN1CCc2ncc(N3CCN([C@H]4CC[C@H](OCC(=O)O)CC4)C3=O)nc2CC1 [36 (2), 1-[trans-4-[(Carboxymethyl)oxy]cyclohexyl]-3-(7-methyl-6,7,8,9-tetrahydro-5H-pyrazino[2,3-d]azepin-2-yl)imidazolidin-2-one dihydrochloride] |  | 210 nM | 
 | 32 nM | CCN1CCc2ncc(N3CCN(c4ccc(CCC(=O)O)cc4)C3=O)nc2CC1 [36 (10), 1-[4-(2-Carboxyethyl)phenyl]-3-(7-ethyl-6,7,8,9-tetrahydro-5-pyrazino[2,3-d]azepin-2-yl)imidazolidin-2-one×1,4 HCl×2 H2 O] |  | 130 nM | 
 | 11 nM | CN1CCc2ncc(N3CCN([C@H]4CC[C@H](CCC(=O)O)CC4)C3=O)nc2CC1 [Example 32, 1-[trans-4-(2-Carboxyethyl)cyclohexyl]-3-(7-methyl-6,7,8,9-tetrahydro-5H-pyrazino[2,3-d]azepin-2-yl)imidazolidin-2-one×1 H2 O] |  | 100 nM | 
 | 1000 nM | CCN1CCc2cnc(N3CCN(C4CCC(CCC(=O)O)CC4)C3=O)cc2CC1 (stereo not drawn) [32 (2), 1-[trans-4-(2-carboxyethyl)cyclohexyl]-3-(7-ethyl-6,7,8,9-tetrahydro-5H-pyrido[3,4-d]imidazolidin-2one] |  | 2300 nM | 
 | 17 nM | CN1CCc2ccc(N3CCN([C@H]4CC[C@H](CCC(=O)O)CC4)C3=O)nc2CC1 [35 (1), 1-[trans-4-(2-Carboxyethyl)cyclohexyl]-3-(7-methyl-6,7,8,9-tetrahydro-5H-pyrido[2,3-d]azepin-2-yl)imidazolidin-2-one dihydrochloride×2H2 O] |  | 110 nM | 
